Laboratory results from USRE38332E1, “Selected soluble esters of hydroxyl-containing indolocarbazoles” (Cephalon, Inc., priority 1995, dated 2003).

What was measured:
[1] = test system: ChAT activity in spinal cord cultures; assay: Effect of indolocarbazole esters on ChAT activity in dissociated spinal cord cultures; type: cell-based, rat
Protocol: The effect of indolocarbazole esters of the invention on ChAT activity was assayed in dissociated spinal cord cultures prepared from fetal rats. ChAT is the enzyme that catalyzes the synthesis of the neurotransmitter acetylcholine, and it is a specific biochemical marker for cholinergic neurons. In the spinal cord, the large majority of cholinergic neurons are motor neurons. Assay of this enzyme may thus be used as an indication of the effects of a factor (or factors) on the survival and/or differentiation of cholinergic neurons and/or regulation of this enzyme. The procedure used for the assay is that described in Example 6 of WO 94/02488. Fourteen esters were tested in the spinal cord ChAT assay to determine their relative efficacy, and the results are summarized in Table 4.

[2] = In vivo metabolism and intravenous pharmacokinetics of I-5 esters in male Sprague-Dawley rats; settings: intravenous, rat; for hydrolysis to indolocarbazole I-5 in vivo: 5 mg/kg dose of I-5 equivalent
Protocol: Groups of 12 male Sprague-Dawley rats were administered either DMAB dihydrochloride or β-alaninate hydrochloride through the lateral tail vein in a vehicle consisting of 0.05M acetate buffer, pH 5.0 containing 20% polyethylene glycol. The volume of the dosing solution was adjusted on the basis of body weight to deliver a 5 mg/kg dose of indolocarbazole I-5 after complete hydrolysis of the respective indolocarbazole ester. At 5, 30, 60, and 120 minutes after injection, the animals were anesthetized with carbon dioxide and a sample of whole blood was obtained by cardiac puncture. The blood was placed into a 10 mL heparinized tube containing 100 μL 50% potassium fluoride (an inhibitor of plasma esterases). Following centrifugation, the resulting plasma was frozen in a dry-ice/isopropanol bath and kept frozen at −90° C. prior to analysis.
For analysis, the samples were thawed, internal standard was added, and the mixture was extracted with 5 mL methylene chloride. Standards in rat plasma were prepared as described previously. All tubes (standards and experimentals) were extracted for 15 minutes by shaking, and centrifuged. The methylene chloride layer was removed, dried under a stream of nitrogen, and reconstituted in DMSO. Fifty μL of the reconstituted extracts were analyzed by reverse-phase HPLC with detection at 290 nm. The mobile phase and gradient conditions are the same as those given in Example 17.

[3] = In vitro metabolism of I-5 esters in rat liver S-9 fraction; type: in vitro ADME; settings: 2 mg/mL protein, 5000 ng/mL
Protocol: (§1) Rat and human liver S-9 fractions (a mixture of cytosol and microsomes) were frozen immediately after preparation. Each aliquot was thawed once for use in incubations. Stock solutions of the indolocarbazole esters were prepared in DMSO. These were used to prepare standard curves in heat inactivated S-9 fraction that had been diluted with 0.2M phosphate buffer, pH 7.4 to yield a 2 mg/mL protein concentration. Heat inactivated S-9 was divided into 500 μL aliquots, mixed with an aliquot of the internal standard, and spiked with the respective stock ester solutions to prepare the standard curve. Incubations containing liver S-9 fraction were prepared by diluting the S-9 fraction in 0.2M phosphate buffer, pH 7.4 to yield a 2 mg/mL protein concentration. Samples (500 μL) were placed in screw-cap vials, mixed with internal standard, and spiked with stock solutions of the respective esters to yield a nominal concentration of 5000 ng/mL.
(§2) Incubations were then performed at 37° C. in a shaking water bath for 0, 0.5, 1, 2, 5, 10, 15, 30, and 60 minutes and quenched by addition of 5 mL methylene chloride. All tubes (standards and experimentals) were extracted for 15 minutes by shaking, and centrifuged. The methylene chloride layer was removed, dried under a stream of nitrogen, and reconstituted in DMSO. Fifty μL of the reconstituted extracts were analyzed by reverse-phase HPLC with detection at 290 nm. The mobile phase and gradient conditions are given below: […]

[4] = Solubility of the esters at 1 mg/ml in water and buffer solutions; settings: for solubility in Tris buffer: 10 mM Tris buffer pH 9; for solubility in acetate buffer: 10 mM acetate buffer pH 4; for solubility in phosphate buffer: 10 mM phosphate buffer pH 7; for solubility in water: water (Solution 1)
Protocol: Indolocarbazole esters were dissolved in water, dimethylsulfoxide (DMSO) and the following buffer solutions to determine solubility and to observe conversion to indolocarbazole I-5. Samples were analyzed by HPLC using UV detection at 290 nm.
Solution 2 was a 10 mM acetate buffer at pH 4 which was prepared by weighing 0.68 g of sodium acetate 3H2O into 500 ml of water and adjusting the pH with acetic acid.
Solution 3 was a 10 mM phosphate buffer, pH 7, which was prepared by weighing 0.30 g of monobasic sodium phosphate and 0.36 g of dibasic sodium phosphate into 500 ml of water, stirring until completely dissolved, and adjusting the pH with hydrochloric acid.
Solution 4 was a 10 mM Tris buffer, pH 9, which was prepared by weighing 0.79 g of Tris (tris(hydroxymethyl)aminomethane hydrochloride) into 500 ml of water, stirring until completely dissolved, and adjusting the pH with sodium hydroxide.
Sample solutions were prepared by weighing 0.5-1 mg of the indolocarbazole ester into an amber 1.5 ml autosampler vial, to which the appropriate quantity of one of the buffer solutions was added, in order to achieve a final concentration of 1 mg/ml. The sample solutions were vortexed and sonicated for 10 minutes. Fifty μl aliquots were placed into 1.5 ml amber autosampler vials. The reaction was quenched at a selected time interval by addition of 450 μl DMSO to the vial.

[5] = Stability of the esters in buffered solution (conversion to indolocarbazole I-5, HPLC); type: physicochemical; settings: buffer solutions, 24 hours
Protocol: Solution 5 was a DMSO control.
HPLC conditions were as follows:
The pH of the compounds in water varied from 2 to 5 while the buffers remained approximately the same at 3.6, 6.7 and 7.8 for the 10 mM acetate, phosphate and Tris, respectively.
Acetate buffers at pH 2, 3, 4, 5 and 6 were prepared as follows. A total of 6.8 g of sodium acetate trihydrate was added to one liter of water, and the mixture was stirred until the solid was completely dissolved. One hundred ml aliquots were placed into 150 ml Erlenmeyer flasks, and the pH values were adjusted with HCl to pH 2, 3, 4, 5, and 6. A concentration of 50 mM was chosen to reduce the effects of compound addition. The indolocarbazole ester of Example 14 was investigated only with the acetate buffers. The rates of conversion of I-5 (the appearance of indolocarbazole I-5) as a function of pH are shown in FIGS. 3, 4, and 5 for the indolocarbazole esters of Examples 14, 8, and 11, respectively.

[6] = In vitro metabolism of I-5 esters in human liver S-9 fraction; type: in vitro ADME; settings: 2 mg/mL protein
Protocol: as §1
as §2, with “The methylene chloride layer was removed, dried under a stream of nitrogen, and reconstituted in DMSO.” left out, “nm.” for “nm. The mobile phase and gradient conditions are given below:”

[7] = test system: Dunning R-3327 AT-2 rat prostate tumor; settings: see WO 94/27982; cited from earlier work
[8] = test system: Dunning R-3327 AT-2 rat prostate tumor; assay: Anti-tumor efficacy against the androgen-independent AT-2 rat prostate tumor; type: in vivo
Protocol: Rat prostate cancer Dunning R-3327 AT-2.1 cells (Isaacs et al., Prostate 9:261-281, 1986) were grown at 37 C. in a humidified incubator, with a 95% air/5% CO2 atmosphere, in RPMI-1640 medium containing 10% fetal calf serum, 250 nM dexamethasone, 2 mM glutamine, penicillin (100 I.U./mL), and streptomycin (100 μg/mL), and 1 mM sodium pyruvate. The cells were determined to be free of mycoplasma and rodent viruses (MAP testing) by Microbiological Associates. Exponentially growing cells were harvested using 6 mL of warm trypsin. The total volume was brought up to 10 mL with media to neutralize trypsin and cells were counted. The cells were then collected by brief centrifugation, and cell pellet was resuspended in Hanks' Balanced Salt Solution to achieve the final concentration of 1×10^7 live cells/mL.
Male inbred Copenhagen rats (200-225 g) obtained from Harlan Sprague-Dawley, Indianapolis, Ind., were maintained three rats/cage and given a commercial diet (Purina Formulab 5001) and water ad libitum. Animals were housed under humidity- and temperature-controlled conditions and light/dark cycle was set at 12-hour intervals. Rats were quarantined for one week before experimental manipulation. Tumor cell implantation and growth
Fifty adult male Copenhagen rats were inoculated with live AT-2 cells (1×10^6 cells/rat) into their right flank. Seven days later, rats bearing AT-2 tumors (approximately 0.5‥0.7 cm^3 in volume) were divided into five groups of ten animals each. A description of the experimental groups is given below. Dosing volumes of either I-5 or its lysyl-β-alaninate ester (1 mL/kg) were based on the average weight of the animals in each dosing group and were adjusted as necessary twice a week. Tumors were measured in anesthetized animals (isofluorane vapor for approximately 1-2 minutes) every 3-4 days using a vernier caliper. Tumor volume was calculated using the formula:
V(cm)=0.5236×length(cm)×width(cm)[(length(cm)+width(cm))/2].
Indolocarbazole I-5 was dissolved in vehicle defined below:
(I-5)-Lysyl-β-alaninate was dissolved in 50 mM sodium acetate buffer, pH 5.5.

Compound	Spinal Cord ChAT Activity (% of Control) 500 nM [1]	Spinal Cord ChAT Activity (% of Control) 1000 nM [1]	hydrolysis to indolocarbazole I-5 in vivo [2]	time ester could be detected in plasma following administration [2]	hydrolysis of the ester [3]	solubility in Tris buffer [4]	solubility in acetate buffer [4]	solubility in phosphate buffer [4]	solubility in water [4]	rate of conversion to indolocarbazole I-5 [5]	rates of hydrolysis [6]	growth inhibition of Dunning R-3327 AT-2 rat prostate tumor in vivo [7]	Tumor volume Day 0 ([8]; Day 0, daily sc dosing, Mean ± SE)	Tumor volume Day 3 ([8]; Day 3, daily sc dosing, Mean ± SE)	Tumor volume Day 6 ([8]; Day 6, daily sc dosing, Mean ± SE)	Tumor volume Day 9 ([8]; Day 9, daily sc dosing, Mean ± SE)	Tumor volume Day 13 ([8]; Day 13, daily sc dosing, Mean ± SE)	inhibiting the growth of AT-2 tumors ([8]; adult male Copenhagen rats)	inhibition of tumor growth ([8]; by Day 13 of dosing)
COC1(COC(=O)CC(C)N(C)C)CC2OC1(C)n1c3ccccc3c3c4c(c5c6ccccc6n2c5c31)C(=O)NC4.Cl (centres unmarked) [Example 8, (I-5)-Dimethylaminobutyrate Hydrochloride]	inactive	138 % of Control	rapidly hydrolyzed	two	rapid hydrolysis	not completely soluble	completely soluble	not completely soluble	completely soluble	low rate of conversion	similar								
COC1(COC(=O)CCN)CC2OC1(C)n1c3ccccc3c3c4c(c5c6ccccc6n2c5c31)C(=O)NC4.Cl (stereo not drawn) [Example 11, (I-5)-β-Alaninate Hydrochloride]	138 % of Control	149 % of Control	rapidly hydrolyzed	one	rate of hydrolysis was markedly reduced	not completely soluble	completely soluble	not completely soluble	completely soluble		similar								
COC1(CO)CC2OC1(C)n1c3ccccc3c3c4c(c5c6ccccc6n2c5c31)C(=O)NC4 (centres unmarked) [Example I-5, reference compound]												growth inhibitory properties	0.7 ± 0.1 cm^3	1.6 ± 0.2 cm^3	2.1 ± 0.1 cm^3	5.4 ± 0.7 cm^3	11.6 ± 1.8 cm^3	effective	53%
